Among the data in patent US10369138B2, “Monobactam organic compounds for the treatment of bacterial infections” (Novartis AG, priority 2014, dated 2019) are MIC values, retold here.

The test system of one test is E. coli strain 25922. Briefly: MIC by broth microdilution, E. coli strain 25922. It counts as cell-based. The note with it: Escherichia coli, 25922, E. coli strain 25922; read-out: Ec 25922 (MIC). The gist of the method: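 CLSI broth microdilution in cation-adjusted Mueller-Hinton broth, inoculum about 5×10^5 CFU/mL, 10% DMSO from the diluted series, 20 h at 35-37° C. MIC is the lowest concentration preventing visible growth, read by eye and at 600 nm.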
On the technique in general: Broth dilution looks for growth in wells or tubes with falling amounts of substance.

The subject of the next test is E. coli containing KPC-2. Kind of test: MIC by broth microdilution, E. coli containing KPC-2 (Ec KPC2 Iso). It counts as cell-based. The note with it: Escherichia coli, read-out: Ec KPC2 Iso (MIC), E. coli containing KPC-2 (carbapenemase from Klebsiella pneumoniae). The method, boiled down:
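Host E. coli BW25113 pspB carrying multicopy pBAD18-kan plasmid with constitutive TEM-promoter KPC-2 expression (periplasmic signal sequence); broth microdilution per CLSI in cation-adjusted Mueller-Hinton broth, inoculum ~5×10^5 CFU/mL, compounds twofold serially diluted from DMSO masters (10% DMSO in dilution series added).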

In brackets after ≈: the same amount, converted by molar mass.

In the case of `CC(C)(O/N=C(\C(=O)N[C@@H]1C(=O)N(S(=O)(=O)O)[C@@H]1Cc1cn(CCN)nn1)c1csc(N)n1)C(=O)O` [Example 101, 2-(((Z)-(2-(((2R,3S)-2-((1-(2-aminoethyl)-1H-1,2,3-triazol-4-yl)methyl)-4-oxo-1-sulfoazetidin-3-yl)amino)-1-(2-aminothiazol-4-yl)-2-oxoethylidene)amino)oxy)-2-methylpropanoic acid], the MIC in the test on E. coli strain 25922 and in the test on E. coli containing KPC-2 was 1 µg/mL (≈ 1.83 µM) in each case.
As to `NCCNCc1cnn(C[C@@H]2[C@H](NC(=O)/C(=N\OC3(C(=O)O)CC3)c3csc(N)n3)C(=O)N2S(=O)(=O)O)n1` [Example 102, 1-(((Z)-(2-(((2R,3S)-2-((4-(((2-aminoethyl)amino)methyl)-2H-1,2,3-triazol-2-yl)methyl)-4-oxo-1-sulfoazetidin-3-yl)amino)-1-(2-aminothiazol-4-yl)-2-oxoethylidene)amino)oxy)cyclopropanecarboxylic acid], the minimal inhibitory concentration (MIC) with E. coli strain 25922 and with E. coli containing KPC-2 was 0.25 µg/mL (≈ 0.437 µM) throughout.
With `N=CNC[C@@H]1CN(C[C@@H]2[C@H](NC(=O)/C(=N\OC3(C(=O)O)CC3)c3csc(N)n3)C(=O)N2S(=O)(=O)O)C(=O)O1` [Example 104, 1-(((Z)-(1-(2-aminothiazol-4-yl)-2-(((2R,3S)-2-(((R)-5-(formimidamidomethyl)-2-oxooxazolidin-3-yl)methyl)-4-oxo-1-sulfoazetidin-3-yl)amino)-2-oxoethylidene)amino)oxy)cyclopropanecarboxylic acid], the minimum inhibitory concentration (MIC) in the test on E. coli strain 25922 and in the test with E. coli containing KPC-2 was above 64 µg/mL each time.
Consider `CC(C)(O/N=C(\C(=O)N[C@@H]1C(=O)N(S(=O)(=O)O)[C@@H]1Cn1cnc(C#N)n1)c1csc(N)n1)C(=O)O` [Example 105, 2-(((Z)-(1-(2-aminothiazol-4-yl)-2-(((2R,3S)-2-((3-cyano-1H-1,2,4-triazol-1-yl)methyl)-4-oxo-1-sulfoazetidin-3-yl)amino)-2-oxoethylidene)amino)oxy)-2-methylpropanoic acid], for which the MIC in the test with E. coli strain 25922 came out at 16 µg/mL (≈ 30.3 µM); with E. coli containing KPC-2 it was 32 µg/mL (≈ 60.7 µM).
The corresponding values for `Nc1nc(/C(=N/OC2(C(=O)O)CC2)C(=O)N[C@@H]2C(=O)N(S(=O)(=O)O)[C@@H]2Cn2ncc(CN3CC(N)C3)n2)cs1` [Example 106, 1-(((Z)-(2-(((2R,3S)-2-((4-((3-aminoazetidin-1-yl)methyl)-2H-1,2,3-triazol-2-yl)methyl)-4-oxo-1-sulfoazetidin-3-yl)amino)-1-(2-aminothiazol-4-yl)-2-oxoethylidene)amino)oxy)cyclopropanecarboxylic acid] are at most 0.06 µg/mL and at most 0.06 µg/mL.
On to `N=C(N)c1ccc(OC[C@H](O/N=C(\C(=O)N[C@@H]2C(=O)N(S(=O)(=O)O)[C@@H]2Cn2cncn2)c2csc(N)n2)C(=O)O)cc1` [Example 107, (S)-2-(((Z)-(2-(((2R,3S)-2-((1H-1,2,4-triazol-1-yl)methyl)-4-oxo-1-sulfoazetidin-3-yl)amino)-1-(2-aminothiazol-4-yl)-2-oxoethylidene)amino)oxy)-3-(4-carbamimidoylphenoxy)propanoic acid], for which the minimum inhibitory concentration (MIC) with E. coli strain 25922 and in the test with E. coli containing KPC-2 was 0.25 µg/mL (≈ 0.402 µM) in each case.
As for `Nc1nc(/C(=N/OC2(C(=O)O)CC2)C(=O)N[C@@H]2C(=O)N(S(=O)(=O)O)[C@@H]2CN2CCNC2=O)cs1` [Example 108, 1-(((Z)-(1-(2-aminothiazol-4-yl)-2-oxo-2-(((3S,4R)-2-oxo-4-((2-oxoimidazolidin-1-yl)methyl)-1-sulfoazetidin-3-yl)amino)ethylidene)amino)oxy)cyclopropanecarboxylic acid], the results for the MIC in the test on E. coli strain 25922 and in the test with E. coli containing KPC-2 were 0.125 µg/mL (≈ 0.242 µM) and at most 0.06 µg/mL, respectively.
Consider `NCc1nn(C[C@@H]2[C@H](NC(=O)/C(=N\OC3(C(=O)O)CC3)c3csc(N)n3)C(=O)N2S(=O)(=O)O)nc1CN` [Example 109, 1-(((Z)-(1-(2-aminothiazol-4-yl)-2-(((2R,3S)-2-((4,5-bis(aminomethyl)-2H-1,2,3-triazol-2-yl)methyl)-4-oxo-1-sulfoazetidin-3-yl)amino)-2-oxoethylidene)amino)oxy)cyclopropanecarboxylic acid], for which the minimum inhibitory concentration (MIC) with E. coli strain 25922 was 0.125 µg/mL (≈ 0.224 µM); in the test on E. coli containing KPC-2 it was 0.25 µg/mL (≈ 0.448 µM).
With `NCCNC(=O)NC[C@@H]1CN(C[C@@H]2[C@H](NC(=O)/C(=N\OC3(C(=O)O)CC3)c3csc(N)n3)C(=O)N2S(=O)(=O)O)C(=O)O1` [Example 111, 1-(((Z)-(2-(((2R,3S)-2-(((R)-5-((3-(2-aminoethyl)ureido)methyl)-2-oxooxazolidin-3-yl)methyl)-4-oxo-1-sulfoazetidin-3-yl)amino)-1-(2-aminothiazol-4-yl)-2-oxoethylidene)amino)oxy)cyclopropanecarboxylic acid], the minimal inhibitory concentration (MIC) in the test on E. coli strain 25922 and in the test on E. coli containing KPC-2 was at most 0.06 µg/mL each time.
With `Nc1nc(/C(=N/OC2(C(=O)O)CC2)C(=O)N[C@@H]2C(=O)N(S(=O)(=O)O)[C@@H]2Cn2ncc(CNC3CCNCC3)n2)cs1` [Example 112, 1-(((Z)-(1-(2-aminothiazol-4-yl)-2-oxo-2-(((3S,4R)-2-oxo-4-((4-((piperidin-4-ylamino)methyl)-2H-1,2,3-triazol-2-yl)methyl)-1-sulfoazetidin-3-yl)amino)ethylidene)amino)oxy)cyclopropanecarboxylic acid], the minimum inhibitory concentration (MIC) in the test with E. coli strain 25922 and in the test with E. coli containing KPC-2 was 0.5 µg/mL (≈ 0.816 µM) in each case.
As to `CC(C)(O/N=C(\C(=O)N[C@@H]1C(=O)N(S(=O)(=O)O)[C@@H]1CN1CCC1=O)c1csc(N)n1)C(=O)O` [Example 113, 2-(((Z)-(1-(2-aminothiazol-4-yl)-2-oxo-2-(((3S,4R)-2-oxo-4-((2-oxoazetidin-1-yl)methyl)-1-sulfoazetidin-3-yl)amino)ethylidene)amino)oxy)-2-methylpropanoic acid], the MIC with E. coli strain 25922 and in the test on E. coli containing KPC-2 was 4 µg/mL (≈ 7.93 µM) in each case.
For `N=C(N)NCCCNCc1cnn(C[C@@H]2[C@H](NC(=O)/C(=N\OC3(C(=O)O)CC3)c3csc(N)n3)C(=O)N2S(=O)(=O)O)n1` [Example 114, 1-(((Z)-(1-(2-aminothiazol-4-yl)-2-(((2R,3S)-2-((4-(((3-guanidinopropyl)amino)methyl)-2H-1,2,3-triazol-2-yl)methyl)-4-oxo-1-sulfoazetidin-3-yl)amino)-2-oxoethylidene)amino)oxy)cyclopropanecarboxylic acid], the minimum inhibitory concentration (MIC) in the test on E. coli strain 25922 is 0.25 µg/mL (≈ 0.398 µM); in the test with E. coli containing KPC-2, at most 0.06 µg/mL.
The corresponding values for `CN(CCCN)Cc1cnn(C[C@@H]2[C@H](NC(=O)/C(=N\OC3(C(=O)O)CC3)c3csc(N)n3)C(=O)N2S(=O)(=O)O)n1` [Example 115, 1-(((Z)-(2-(((2R,3S)-2-((4-(((3-aminopropyl)(methyl)amino)methyl)-2H-1,2,3-triazol-2-yl)methyl)-4-oxo-1-sulfoazetidin-3-yl)amino)-1-(2-aminothiazol-4-yl)-2-oxoethylidene)amino)oxy)cyclopropanecarboxylic acid] are 0.125 µg/mL (≈ 0.208 µM) and 0.25 µg/mL (≈ 0.416 µM).
As for `CNCCCNCc1cnn(C[C@@H]2[C@H](NC(=O)/C(=N\OC3(C(=O)O)CC3)c3csc(N)n3)C(=O)N2S(=O)(=O)O)n1` [Example 116, 1-(((Z)-(1-(2-aminothiazol-4-yl)-2-(((2R,3S)-2-((4-(((3-(methylamino)propyl)amino)methyl)-2H-1,2,3-triazol-2-yl)methyl)-4-oxo-1-sulfoazetidin-3-yl)amino)-2-oxoethylidene)amino)oxy)cyclopropanecarboxylic acid], the MIC in the test on E. coli strain 25922 was found to be 0.25 µg/mL (≈ 0.416 µM); with E. coli containing KPC-2 it was 0.125 µg/mL (≈ 0.208 µM).
The corresponding values for `CNCCNCc1cnn(C[C@@H]2[C@H](NC(=O)/C(=N\OC3(C(=O)O)CC3)c3csc(N)n3)C(=O)N2S(=O)(=O)O)n1` [Example 117, 1-(((Z)-(1-(2-aminothiazol-4-yl)-2-(((2R,3S)-2-((4-(((2-(methylamino)ethyl)amino)methyl)-2H-1,2,3-triazol-2-yl)methyl)-4-oxo-1-sulfoazetidin-3-yl)amino)-2-oxoethylidene)amino)oxy)cyclopropanecarboxylic acid] are 0.5 µg/mL (≈ 0.852 µM) and 1 µg/mL (≈ 1.7 µM).
As for `NCCCCNCc1cnn(C[C@@H]2[C@H](NC(=O)/C(=N\OC3(C(=O)O)CC3)c3csc(N)n3)C(=O)N2S(=O)(=O)O)n1` [Example 118, 1-(((Z)-(2-(((2R,3S)-2-((4-(((4-aminobutyl)amino)methyl)-2H-1,2,3-triazol-2-yl)methyl)-4-oxo-1-sulfoazetidin-3-yl)amino)-1-(2-aminothiazol-4-yl)-2-oxoethylidene)amino)oxy)cyclopropanecarboxylic acid], the minimum inhibitory concentration (MIC) in the test with E. coli strain 25922 stood at 0.5 µg/mL (≈ 0.832 µM); with E. coli containing KPC-2, 0.25 µg/mL (≈ 0.416 µM).
The corresponding values for `N=C(NCCCN)NCc1cnn(C[C@@H]2[C@H](NC(=O)/C(=N\OC3(C(=O)O)CC3)c3csc(N)n3)C(=O)N2S(=O)(=O)O)n1` [Example 119, 1-(((Z)-(2-(((2R,3S)-2-((4-((3-(3-aminopropyl)guanidino)methyl)-2H-1,2,3-triazol-2-yl)methyl)-4-oxo-1-sulfoazetidin-3-yl)amino)-1-(2-aminothiazol-4-yl)-2-oxoethylidene)amino)oxy)cyclopropanecarboxylic acid] are 0.25 µg/mL (≈ 0.398 µM) and 0.25 µg/mL (≈ 0.398 µM).
The corresponding values for `N=C(NCCCN)NCc1cn(C[C@@H]2[C@H](NC(=O)/C(=N\OC3(C(=O)O)CC3)c3csc(N)n3)C(=O)N2S(=O)(=O)O)nn1` [Example 120, 1-(((Z)-(2-(((2R,3S)-2-((4-((3-(3-aminopropyl)guanidino)methyl)-1H-1,2,3-triazol-1-yl)methyl)-4-oxo-1-sulfoazetidin-3-yl)amino)-1-(2-aminothiazol-4-yl)-2-oxoethylidene)amino)oxy)cyclopropanecarboxylic acid] are 0.25 µg/mL (≈ 0.398 µM) and 0.5 µg/mL (≈ 0.795 µM).

As a reminder, the MIC is the smallest concentration in the dilution series that meets the test's criterion for growth inhibition.
